Patent US6355799B1, “Substituted benzene compounds, process for their preparation, and herbicidal and defoliant compositions containing them” (ISK Americas Incorporated, priority 1997, dated 2002)

Key:
Assay type in all cases: in vivo
[1] = test system: ivyleaf morningglory (Ipomoea hederacea, IPOHE); assay: Post-emerge test, greenhouse herbicide activity screening; conditions: post-emerge, 14 days after application, rating scale 0-100
Source text: (§1) A standard greenhouse herbicide activity screening system was used to evaluate the herbicidal efficacy and crop safety of these test compounds. Seven broadleaf weed species including redroot pigweed (Amaranthus retroflexus, AMARE, velvetleaf (Abutilon theophrasti, ABUTH), sicklepod (Cassia obtusifolia, CASOB), ivyleaf morningglory (Ipomoea hederacea, IPOHE), lambsquarters (Chenopodium album, CHEAL), common ragweed (Ambrosia artemisizfolia L., AMBEL), and cocklebur (Xanthium strumarium, XANST) were used as test species. Four grass weed species including green foxtail (Setaria viridis, SETVI), barnyardgrass (Echinochloa crus-galli, ECHCG), johnsongrass (Sorghum halepense, SORHA), and large crabgrass (Digitaria sanguinalis, DIGSA) were also used. In addition, three crop species, field corn (Zea mays L., var. Dekalb 535, CORN), soybean (Glycine max L., var. Pella 86, SOY), and is upland rice (Oryza sp., var. Tebonnet, RICE) were included.
(§2) All plants were grown in 10 cm square plastic pots which were filled with a sandy loam soil mix. For pre-emerge tests, seeds were planted one day prior to application of the test compounds. For post-emerge tests, seeds were planted 8-21 days prior to the test to allow emergence and good foliage development prior to application of the test substances. At the time of the post-emerge application, plants of all species were usually at the 2-3 leaf stage of development.
(§3) All test compounds Were dissolved in acetone and applied to the test units in a volume of 187 l /ha. Test materials were applied at rates ranging from 15 g ai/ha to 1000 g ai/ha using a track sprayer equipped with a TJ8001E even flow flat fan spray nozzle. Plants were arranged on a shelf so that the top of the canopy (post-emerge) or top of the soil surface (pre-emerge) was 40-45 cm below the nozzle. Pressurized air was used to force the test solution through the nozzle as it was mechanically advanced (via electrically driven chain drive) over the top of all test plants/pots. This application simulates a typical commercial field herbicide application.
(§4) In the post-emerge test, a commercial non-ionic surfactant was also included (0.25% v/v) to enhance wetting of the leaf surfaces of target plants. Immediately after application, test units of the pre-emerge applications were watered at the soil surface to incorporate the test materials. Subsequently, these test units were bottom-watered. Post-emerge test units were always bottom-watered.
(§5) At 14 days after application of the test materials, phytotoxicity ratings were recorded. A rating scale of 0-100 was used as previously described in Research Methods in Weed Science, 2nd edition, B. Truelove, Ed., Southern Weed Science Society, Auburn University, Auburn, Ala. 1977. Briefly, “0” corresponds to no damage and “100” corresponds to complete death of all plants in the test unit. This scale was used both to determine efficacy against weed species and damage to crop species. Herbicide activity data for various compounds of this invention, which are shown by compound No. in Tables 1-8, are shown in Tables 11 and 12.

[2] = test system: sicklepod (Cassia obtusifolia, CASOB); assay: as above; conditions: post-emerge, 14 days after application, rating scale 0-100
Source text: as §1, §2, §3, §4, §5

[3] = test system: redroot pigweed (Amaranthus retroflexus, AMARE); assay: as above; conditions: post-emerge, 14 days after application, rating scale 0-100
Source text: as §1, §2, §3, §4, §5

[4] = test system: green foxtail (Setaria viridis, SETVI); assay: as above; conditions: post-emerge, 14 days after application, rating scale 0-100
Source text: as §1, §2, §3, §4, §5

[5] = test system: large crabgrass (Digitaria sanguinalis, DIGSA); assay: as above; conditions: post-emerge, 14 days after application, rating scale 0-100
Source text: as §1, §2, §3, §4, §5

[6] = test system: barnyardgrass (Echinochloa crus-galli, ECHCG); assay: as above; conditions: post-emerge, 14 days after application, rating scale 0-100
Source text: as §1, §2, §3, §4, §5

[7] = test system: lambsquarters (Chenopodium album, CHEAL); assay: as above; conditions: post-emerge, 14 days after application, rating scale 0-100
Source text: as §1, §2, §3, §4, §5

[8] = test system: velvetleaf (Abutilon theophrasti, ABUTH); assay: as above; conditions: post-emerge, 14 days after application, rating scale 0-100
Source text: as §1, §2, §3, §4, §5

[9] = test system: upland rice (Oryza sp., var. Tebonnet, RICE); assay: Post-emerge test, crop safety; conditions: post-emerge, 14 days after application, rating scale 0-100
Outline: (§6)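 Each test used a mechanized track sprayer delivering 187 l/ha of acetone solution at 15–1000 g ai/ha. Post-emerge foliage at 2–3 leaves was treated with added 0.25% v/v non-ionic surfactant and bottom-watered only. Injury was assessed on day 14, where 100 means total kill.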

[10] = test system: field corn (Zea mays L., var. Dekalb 535, CORN); assay: Post-emerge test, crop safety; conditions: post-emerge, 14 days after application, rating scale 0-100
Outline: as §6

[11] = test system: upland rice (Oryza sp., var. Tebonnet, RICE); assay: Pre-emerge test, crop safety; conditions: pre-emerge, 14 days after application, scale 0-100
Outline: (§7)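 Compounds in acetone were track-sprayed at 187 l/ha, 15–1000 g ai/ha, onto sandy loam pots. Pre-emerge seeds were sown one day before spraying, with surface watering afterwards. Post-emerge plants were at the 2–3 leaf stage and sprayed with 0.25% v/v non-ionic surfactant. Injury was rated 0–100 at 14 days.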

[12] = test system: field corn (Zea mays L., var. Dekalb 535, CORN); assay: Pre-emerge test, crop safety; conditions: pre-emerge, 14 days after application, scale 0-100
Outline: as §7

[13] = test system: redroot pigweed (Amaranthus retroflexus, AMARE); assay: Pre-emerge test, greenhouse herbicide activity screening; conditions: pre-emerge, 14 days after application, scale 0-100
Outline: as §7

[14] = test system: ivyleaf morningglory (Ipomoea hederacea, IPOHE); assay: as above; conditions: pre-emerge, 14 days after application, scale 0-100
Source text: as §1, §2, §3, §4, §5

[15] = test system: sicklepod (Cassia obtusifolia, CASOB); assay: as above; conditions: pre-emerge, 14 days after application, scale 0-100
Source text: as §1, §2, §3, §4, §5

[16] = test system: green foxtail (Setaria viridis, SETVI); assay: as above; conditions: pre-emerge, 14 days after application, scale 0-100
Source text: as §1, §2, §3, §4, §5

[17] = test system: large crabgrass (Digitaria sanguinalis, DIGSA); assay: as above; conditions: pre-emerge, 14 days after application, scale 0-100
Source text: as §1, §2, §3, §4, §5

[18] = test system: barnyardgrass (Echinochloa crus-galli, ECHCG); assay: as above; conditions: pre-emerge, 14 days after application, scale 0-100
Source text: as §1, §2, §3, §4, §5

[19] = test system: lambsquarters (Chenopodium album, CHEAL); assay: as above; conditions: pre-emerge, 14 days after application, scale 0-100
Source text: as §1, §2, §3, §4, §5

[20] = test system: velvetleaf (Abutilon theophrasti, ABUTH); assay: as above; conditions: pre-emerge, 14 days after application, scale 0-100
Source text: as §1, §2, §3, §4, §5

Compound	IPOHE phytotoxicity rating ([1]; 63 g ai/ha)	IPOHE phytotoxicity rating ([1]; 250 g ai/ha)	CASOB phytotoxicity rating ([2]; 63 g ai/ha)	CASOB phytotoxicity rating ([2]; 250 g ai/ha)	AMARE phytotoxicity rating ([3]; 63 g ai/ha)	AMARE phytotoxicity rating ([3]; 250 g ai/ha)	SETVI phytotoxicity rating ([4]; 63 g ai/ha)	SETVI phytotoxicity rating ([4]; 250 g ai/ha)	DIGSA phytotoxicity rating ([5]; 63 g ai/ha)	DIGSA phytotoxicity rating ([5]; 250 g ai/ha)	ECHCG phytotoxicity rating ([6]; 63 g ai/ha)	ECHCG phytotoxicity rating ([6]; 250 g ai/ha)	CHEAL phytotoxicity rating ([7]; 63 g ai/ha)	CHEAL phytotoxicity rating ([7]; 250 g ai/ha)	ABUTH phytotoxicity rating ([8]; 63 g ai/ha)	ABUTH phytotoxicity rating ([8]; 250 g ai/ha)	RICE phytotoxicity rating (crop damage) ([9]; 63 g ai/ha)	CORN phytotoxicity rating (crop damage) ([10]; 63 g ai/ha)	CORN phytotoxicity rating (crop damage) ([10]; 250 g ai/ha)	phytotoxicity rating RICE (crop damage) ([11]; 63 g ai/ha)	further results
COc1c(C#N)cc(F)c(-n2c(=O)cc(C(F)(F)F)n(C)c2=O)c1NC(=O)c1ccc2ccccc2c1 [2-181]	100	100	100	100	100	100	70	80	30	70	40	60	100	100	100	100	15	10	20	15	RICE phytotoxicity rating (crop damage) ([9]; 250 g ai/ha): 60; phytotoxicity rating RICE (crop damage) ([11]; 250 g ai/ha): 80; phytotoxicity rating CORN (crop damage) ([12]; 63 g ai/ha): 0; phytotoxicity rating CORN (crop damage) ([12]; 250 g ai/ha): 5; phytotoxicity rating AMARE ([13]; 63 g ai/ha): 100; phytotoxicity rating AMARE ([13]; 250 g ai/ha): 100; phytotoxicity rating IPOHE ([14]; 63 g ai/ha): 30; phytotoxicity rating IPOHE ([14]; 250 g ai/ha): 80; phytotoxicity rating CASOB ([15]; 63 g ai/ha): 10; phytotoxicity rating CASOB ([15]; 250 g ai/ha): 90; phytotoxicity rating SETVI ([16]; 63 g ai/ha): 70; phytotoxicity rating SETVI ([16]; 250 g ai/ha): 95; phytotoxicity rating DIGSA ([17]; 63 g ai/ha): 60; phytotoxicity rating DIGSA ([17]; 250 g ai/ha): 90; phytotoxicity rating ECHCG ([18]; 63 g ai/ha): 40; phytotoxicity rating ECHCG ([18]; 250 g ai/ha): 80; phytotoxicity rating CHEAL ([19]; 63 g ai/ha): 100; phytotoxicity rating CHEAL ([19]; 250 g ai/ha): 100; phytotoxicity rating ABUTH ([20]; 63 g ai/ha): 100; phytotoxicity rating ABUTH ([20]; 250 g ai/ha): 100
C=Cc1ccc(C(=O)Nc2c(OC)c(Br)cc(F)c2-n2c(=O)cc(C(F)(F)F)n(C)c2=O)cc1 [2-182]	100	100	60	95	90	95	10	80	0	20	0	30	95	100	100	100	0	5	70	15	phytotoxicity rating RICE (crop damage) ([11]; 250 g ai/ha): 70; phytotoxicity rating CORN (crop damage) ([12]; 63 g ai/ha): 0; phytotoxicity rating CORN (crop damage) ([12]; 250 g ai/ha): 10; phytotoxicity rating AMARE ([13]; 63 g ai/ha): 90; phytotoxicity rating AMARE ([13]; 250 g ai/ha): 100; phytotoxicity rating IPOHE ([14]; 63 g ai/ha): 0; phytotoxicity rating IPOHE ([14]; 250 g ai/ha): 100; phytotoxicity rating CASOB ([15]; 63 g ai/ha): 10; phytotoxicity rating CASOB ([15]; 250 g ai/ha): 60; phytotoxicity rating SETVI ([16]; 63 g ai/ha): 30; phytotoxicity rating SETVI ([16]; 250 g ai/ha): 90; phytotoxicity rating DIGSA ([17]; 63 g ai/ha): 30; phytotoxicity rating DIGSA ([17]; 250 g ai/ha): 90; phytotoxicity rating ECHCG ([18]; 63 g ai/ha): 10; phytotoxicity rating ECHCG ([18]; 250 g ai/ha): 60; phytotoxicity rating CHEAL ([19]; 63 g ai/ha): 100; phytotoxicity rating CHEAL ([19]; 250 g ai/ha): 100; phytotoxicity rating ABUTH ([20]; 63 g ai/ha): 100; phytotoxicity rating ABUTH ([20]; 250 g ai/ha): 100
